Measured values taken from patent publication US4659726A, “Novel 4,5-Bis (4-methoxyphenyl)-2-(pyrrol-2-yl) thiazoles and pharmaceutical composition containing the same” (Kanebo, Ltd., priority 1984, dated 1987).
Structures can show the parent of a compound that is named as a salt. Where two headings read alike, the source gives them in different places.

Tests used:
[1] = tested on: Platelet aggregation (collagen); assay: Platelet aggregation inhibitory activity, ex vivo after oral administration to guinea pigs, collagen as aggregating agent; type: in vivo, Hartley strain male guinea pigs; conditions: Cavia porcellus, read-out: Platelet aggregation inhibitory activity Collagen ED50
Method: (§1) Hartley strain male guinea pigs (weighing 300-350 g, one group: three animals) were fasted overnight, and to the animals were orally administered a solution or suspension of the test compounds in corn oil-10% arabic gum. […] The citrated blood thus obtained was centrifuged at 1,700 rpm for 10 minutes, and a platelet-rich plasma (PRP) was obtained from the supernatant. After isolating PRP, the remaining blood was further centrifuged at 3,000 rpm for 10 minutes, and a platelet-poor plasma (PPP) was obtained from the supernatant.
(§2) The PRP (450 μl) thus obtained was incubated at 37° C. for 3 minutes, and thereto was added 1.0 mM sodium arachidonate (50 μl) as an aggregating agent, and then the platelet aggregation thereof was measured with Platelet Aggregation Profiler® (Model PAP-3, manufactured by Bio Data Corp.) while using the PPP obtained above as a blank. As a control, as to animals to which no test compound was administered, the platelet aggregation rate was measured likewise.
(§3) The platelet aggregation inhibitory rate was calculated by the following equation. [formula]
Moreover, the above method was repeated except that 100 μg/ml collagen suspension (50 μl) was used as an aggregating agent instead of sodium arachidonate.

[2] = tested on: Platelet aggregation (arachidonate); assay: Platelet aggregation inhibitory activity, ex vivo after oral administration to guinea pigs, sodium arachidonate as aggregating agent; type: in vivo, Hartley strain male guinea pigs; conditions: Cavia porcellus, read-out: Platelet aggregation inhibitory activity Arachidonate ED50
Method: as §1, §2, §3

in vivo = conditions: mouse, oral, ddy male mice, deaths counted at 10 days, Weil method, read-out: Acute toxicity LD50
Source text: ddy male mice (weighing 18-23 g, one group: 5 animals) were fasted overnight, and thereto was orally administered a suspension of the test compounds in 1% arabic gum solution.

[3] = oral, guinea pig, blood collected after 3 hours, 100 μg/ml collagen suspension (50 μl), 50% inhibitory rate
[4] = oral, guinea pig, blood collected after 3 hours, 1.0 mM sodium arachidonate (50 μl), 50% inhibitory rate

SMILES | ED50 [1, 3] | ED50 [2, 4] | LD50 at 240 h (in vivo) | ED50 ([1]; po, 3 h) | ED50 ([2]; po, 3 h)
Clc1ccccc1CN1CCc2sccc2C1 [Ticlopidine.HCl, Ticlopidine hydrochloride, reference compound] | 300 mg/kg | > 300 mg/kg | – | – | –
CCOCCn1cccc1-c1nc(-c2ccc(OC)cc2)c(-c2ccc(OC)cc2)s1 [Ex. 38, 4,5-bis(4-methoxyphenyl)-2-[1-(2-ethoxyethyl)pyrrol-2-yl]thiazole] | 0.29 mg/kg | 0.09 mg/kg | > 3000 mg/kg | – | –
C=COCCn1cccc1-c1nc(-c2ccc(OC)cc2)c(-c2ccc(OC)cc2)s1 [Ex. 39, 4,5-bis(4-methoxyphenyl)-2-[1-(2-vinyloxyethyl)pyrrol-2-yl]thiazole] | 0.49 mg/kg | 0.33 mg/kg | > 3000 mg/kg | – | –
COc1ccc(-c2nc(-c3cccn3CC(=O)OC(C)C(C)C)sc2-c2ccc(OC)cc2)cc1 (centres unmarked) [Ex. 26, 3-methyl-2-butyl 2-[4,5-bis(4-methoxyphenyl)thiazol-2-yl]pyrrole-1-acetate] | 0.34 mg/kg | 0.26 mg/kg | > 3000 mg/kg | – | –
CCCOCn1cccc1-c1nc(-c2ccc(OC)cc2)c(-c2ccc(OC)cc2)s1 [Ex. 37, 4,5-Bis(4-methoxyphenyl)-2-(1-n-propoxymethylpyrrol-2-yl)thiazole] | 0.61 mg/kg | 0.49 mg/kg | > 3000 mg/kg | – | –
CCn1cccc1-c1nc(-c2ccc(OC)cc2)c(-c2ccc(OC)cc2)s1 [Ex. 1, 4,5-Bis(4-methoxyphenyl)-2-(1-ethylpyrrol-2-yl)-thiazole] | 0.91 mg/kg | 0.47 mg/kg | > 3000 mg/kg | – | –
CC(=O)Oc1ccccc1C(=O)O [Aspirin, reference compound] | – | – | 1060 mg/kg | 58.9 mg/kg | 38.2 mg/kg
CCOC(=O)Cn1cccc1-c1nc(-c2ccc(OC)cc2)c(-c2ccc(OC)cc2)s1 [Ex. 14, ethyl 2-[4,5-bis(4-methoxyphenyl)thiazol-2-yl]pyrrole-1-acetate] | 0.19 mg/kg | 0.088 mg/kg | > 3000 mg/kg | – | –
COc1ccc(-c2nc(-c3cccn3C)[nH]c2-c2ccc(OC)cc2)cc1 [Compd. C, 4,5-bis(4-methoxyphenyl)-2-(1-methylpyrrol-2-yl)imidazole, reference compound] | 2.51 mg/kg | 1.21 mg/kg | > 3000 mg/kg | – | –
CCCC(C)OC(=O)Cn1cccc1-c1nc(-c2ccc(OC)cc2)c(-c2ccc(OC)cc2)s1 (centres unmarked) [Ex. 24, 2-pentyl 2-[4,5-bis(4-methoxyphenyl)thiazol-2-yl]pyrrole-1-acetate] | 0.22 mg/kg | 0.12 mg/kg | > 3000 mg/kg | – | –
CCSCCn1cccc1-c1nc(-c2ccc(OC)cc2)c(-c2ccc(OC)cc2)s1 [Ex. 40, 4,5-bis(4-methoxyphenyl)-2-[1-(2-ethylthioethyl)pyrrol-2-yl]thiazole] | 0.51 mg/kg | 0.41 mg/kg | > 3000 mg/kg | – | –
COc1ccc(-c2nc(-c3cccn3CC(=O)OC(C)C)sc2-c2ccc(OC)cc2)cc1 [Ex. 16, isopropyl 2-[4,5-bis(4-methoxyphenyl)thiazol-2-yl]pyrrole-1-acetate] | 0.11 mg/kg | 0.061 mg/kg | > 3000 mg/kg | – | –
COc1ccc(-c2nc(-c3cccn3CC(C)C)sc2-c2ccc(OC)cc2)cc1 [Ex. 4, 4,5-Bis(4-methoxyphenyl)-2-(1-isobutylpyrrol-2-yl)thiazole] | 0.78 mg/kg | 0.41 mg/kg | > 3000 mg/kg | – | –
COC(=O)Cn1cccc1-c1nc(-c2ccc(OC)cc2)c(-c2ccc(OC)cc2)s1 [Ex. 13, methyl 2-[4,5-bis(4-methoxyphenyl)thiazol-2-yl]pyrrole-1-acetate] | 0.89 mg/kg | 0.26 mg/kg | > 3000 mg/kg | – | –
COc1ccc(-c2nc(-c3cccn3CC(=O)OCC(C)C)sc2-c2ccc(OC)cc2)cc1 [Ex. 18, Isobutyl 2-[4,5-bis(4-methoxyphenyl)thiazol-2-yl]-pyrrole-1-acetate] | 0.12 mg/kg | 0.072 mg/kg | > 3000 mg/kg | – | –
CCCn1cccc1-c1nc(-c2ccc(OC)cc2)c(-c2ccc(OC)cc2)s1 [Ex. 3, 4,5-Bis(4-methoxyphenyl)-2-(1-n-propylpyrrol-2-yl)thiazole] | 0.52 mg/kg | 0.32 mg/kg | > 3000 mg/kg | – | –
COc1ccc(-c2nc(-c3cccn3CC(F)(F)F)sc2-c2ccc(OC)cc2)cc1 [Ex. 7, 4,5-Bis(4-methoxyphenyl)-2-[1-(2,2,2-trifluoroethyl)pyrrol-2-yl]thiazole] | 0.51 mg/kg | 0.47 mg/kg | > 3000 mg/kg | – | –

SMILES | ED50 [1, 3] | ED50 [2, 4] | LD50 at 240 h (in vivo) | ED50 ([1]; po, 3 h) | ED50 ([2]; po, 3 h)
CCCCCOC(=O)Cn1cccc1-c1nc(-c2ccc(OC)cc2)c(-c2ccc(OC)cc2)s1 [Ex. 20, n-pentyl 2-[4,5-bis(4-methoxyphenyl)thiazol-2-yl]pyrrole-1-acetate] | 0.49 mg/kg | 0.28 mg/kg | > 3000 mg/kg | – | –
COc1ccc(-c2nc(-c3cccn3CC(=O)OCc3ccccc3)sc2-c2ccc(OC)cc2)cc1 [Ex. 31, benzyl 2-[4,5-bis(4-methoxyphenyl)thiazol-2-yl]pyrrole-1-acetate] | 0.16 mg/kg | 0.11 mg/kg | > 3000 mg/kg | – | –
C=CCn1cccc1-c1nc(-c2ccc(OC)cc2)c(-c2ccc(OC)cc2)s1 [Ex. 5, 4,5-Bis(4-methoxyphenyl)-2-(1-allylpyrrol-2-yl)-thiazole] | 0.55 mg/kg | 0.4 mg/kg | > 3000 mg/kg | – | –
C=CCOC(=O)Cn1cccc1-c1nc(-c2ccc(OC)cc2)c(-c2ccc(OC)cc2)s1 [Ex. 29, allyl 2-[4,5-bis(4-methoxyphenyl)thiazol-2-yl]pyrrole-1-acetate] | 0.11 mg/kg | 0.047 mg/kg | > 3000 mg/kg | – | –
CCCOC(=O)Cn1cccc1-c1nc(-c2ccc(OC)cc2)c(-c2ccc(OC)cc2)s1 [Ex. 15, n-Propyl 2-[4,5-bis(4-methoxyphenyl)thiazol-2-yl]-pyrrole-1-acetate] | 0.11 mg/kg | 0.072 mg/kg | > 3000 mg/kg | – | –
CCC(C)COC(=O)Cn1cccc1-c1nc(-c2ccc(OC)cc2)c(-c2ccc(OC)cc2)s1 (centres unmarked) [Ex. 23, 2-methyl-1-butyl 2-[4,5-bis(4-methoxyphenyl)thiazol-2-yl]pyrrole-1-acetate] | 0.14 mg/kg | 0.073 mg/kg | > 3000 mg/kg | – | –
COc1ccc(-c2nc(-c3cccn3CC(=O)OCCC(C)C)sc2-c2ccc(OC)cc2)cc1 [Ex. 21, Isopentyl 2-[4,5-bis(4-methoxyphenyl)thiazol-2-yl]pyrrole-1-acetate] | 0.22 mg/kg | 0.12 mg/kg | > 3000 mg/kg | – | –
COc1ccc(-c2nc(C(F)(F)F)sc2-c2ccc(OC)cc2)cc1 [Compd. A, 4,5-bis(4-methoxyphenyl)-2-trifluoromethylthiazole, reference compound] | 1.29 mg/kg | 0.54 mg/kg | > 3000 mg/kg | – | –
CCC(C)OC(=O)Cn1cccc1-c1nc(-c2ccc(OC)cc2)c(-c2ccc(OC)cc2)s1 (centres unmarked) [Ex. 19, sec-Butyl 2-[4,5-bis(4-methoxyphenyl)thiazol-2-yl]pyrrole-1-acetate] | 0.11 mg/kg | 0.12 mg/kg | > 3000 mg/kg | – | –
COc1ccc(-c2nc(-c3cccn3C(C)C)sc2-c2ccc(OC)cc2)cc1 [Ex. 2, 4,5-Bis(4-methoxyphenyl)-2-(1-isopropylpyrrol-2-yl)thiazole] | 0.63 mg/kg | 0.29 mg/kg | > 3000 mg/kg | – | –
COc1ccc(-c2nc(-c3cccn3CC(=O)OCC(C)(C)C)sc2-c2ccc(OC)cc2)cc1 [Ex. 22, Neopentyl 2-[4,5-bis(4-methoxyphenyl)thiazol-2-yl]pyrrole-1-acetate] | 0.4 mg/kg | 0.11 mg/kg | > 3000 mg/kg | – | –
COc1ccc(-c2nc(-c3ccc(F)cc3)sc2-c2ccc(OC)cc2)cc1 [Compd. B, 4,5-bis(4-methoxyphenyl)-2-(4-fluorophenyl)thiazole, reference compound] | 1.2 mg/kg | 1.24 mg/kg | > 3000 mg/kg | – | –
CCOCn1cccc1-c1nc(-c2ccc(OC)cc2)c(-c2ccc(OC)cc2)s1 [Ex. 36, 4,5-Bis(4-methoxyphenyl)-2-(1-ethoxymethylpyrrol-2-yl)thiazole] | 0.98 mg/kg | 0.45 mg/kg | > 3000 mg/kg | – | –
CCCCOC(=O)Cn1cccc1-c1nc(-c2ccc(OC)cc2)c(-c2ccc(OC)cc2)s1 [Ex. 17, n-Butyl 2-[4,5-bis(4-methoxyphenyl)thiazol-2-yl]-pyrrole-1-acetate] | 0.19 mg/kg | 0.15 mg/kg | > 3000 mg/kg | – | –
C#CCOC(=O)Cn1cccc1-c1nc(-c2ccc(OC)cc2)c(-c2ccc(OC)cc2)s1 [Ex. 30, Propargyl 2-[4,5-bis(4-methoxyphenyl)thiazol-2-yl]pyrrole-1-acetate] | 0.068 mg/kg | 0.039 mg/kg | > 3000 mg/kg | – | –
CCC(CC)OC(=O)Cn1cccc1-c1nc(-c2ccc(OC)cc2)c(-c2ccc(OC)cc2)s1 [Ex. 25, 3-pentyl 2-[4,5-bis(4-methoxyphenyl)thiazol-2-yl]pyrrole-1-acetate] | 0.34 mg/kg | 0.12 mg/kg | > 3000 mg/kg | – | –
